Source: patent US11932601B2, “Immunoregulatory agents” (FLEXUS BIOSCIENCES, INC., priority 2014, dated 2024)

target: T1, human IDO1 (Homo sapiens, UniProt P14902); test: HEK293 cells stably expressing human IDO1, IDO inhibition assay (kynurenine, Ehrlich reagent, absorbance 490 nm); assay type: cell-based; conditions: 20 hours incubation, 500 nM reference standard = 100% inhibition, read-out: HEK Human IDO-1 Biological Activity (IC50)
T1 construct: expressed in transfected cells
Protocol: HEK293 cells were transfected with a pCDNA-based mammalian expression vector harboring human IDO1 cDNA (NM 002164.2) by electroporation. They were cultured in medium (DMEM with 10% FBS) containing 1 mg/ml G418 for two weeks. Clones of HEK293 cells that stably expressed human IDO1 protein were selected and expanded for IDO inhibition assay.
The human IDO1/HEK293 cells were seeded at 10,000 cells per 50 μL per well with RPMI/phenol red free media contains 10% FBS in a 384-well black wall clear bottom tissue culture plate (Matrix Technologies LLC) 100 nL of certain concentration of compound was then added to each well using ECHO liquid handling systems. The cells were incubated for 20 hours in 37° C. incubator with 5% CO2.
The compound treatments were stopped by adding Trichloroacetic Acid (Sigma-Aldrich) to a final concentration at 0.2%. The cell plate was further incubated at 50° C. for 30 minute. The equal volume supernatant […] and 0.2% (w/v) Ehrlich reagent (4-dimethylaminobenzaldehyde, Sigma-Aldrich) in glacial acetic acid were mixed in a new clear bottom 384-well plate. This plate was then incubated at room temperature for 30 minute. The absorbance at 490 nm was measured on Envision plate reader.

T1 sequence (P14902 whole entry): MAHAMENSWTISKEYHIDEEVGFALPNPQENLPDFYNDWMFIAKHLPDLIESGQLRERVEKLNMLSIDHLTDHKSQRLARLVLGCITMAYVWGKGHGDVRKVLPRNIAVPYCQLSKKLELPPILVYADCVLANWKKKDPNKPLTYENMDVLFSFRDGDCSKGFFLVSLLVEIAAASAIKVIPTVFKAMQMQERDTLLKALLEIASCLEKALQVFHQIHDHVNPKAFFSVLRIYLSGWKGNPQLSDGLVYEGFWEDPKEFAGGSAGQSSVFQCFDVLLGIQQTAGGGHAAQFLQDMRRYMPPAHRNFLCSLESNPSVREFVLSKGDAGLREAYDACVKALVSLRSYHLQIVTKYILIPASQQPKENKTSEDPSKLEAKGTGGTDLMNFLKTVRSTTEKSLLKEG

Row | SMILES | IC50 [nM]
1 | Cc1c(C2CCC(C(C)C(=O)Nc3ccc(Cl)cc3)CC2)ccnc1F (single isomer, unassigned) [Example 310b, (+/-)N-(4-chlorophenyl)-2-(4-(2-fluoro-3-methylpyridin-4-yl)cyclohexyl) propanamide] | < 50
2 | CC(C(=O)Nc1ccc(Cl)cc1)C1CCC(c2ccncc2F)CC1 (single isomer, unassigned) [Example 318c, N-(4-chlorophenyl)-2-(4-(3-fluoropyridin-4-yl)cyclohexyl) propanamide] | > 250
3 | CC(C(=O)Nc1ccc(Cl)cc1)C1CCC(c2ccncc2F)CC1 (single isomer, unassigned) [Example 318b, N-(4-chlorophenyl)-2-(4-(3-fluoropyridin-4-yl)cyclohexyl) propanamide] | < 50
